According to patent US8361971B2, “Tablet formulation of ezatiostat” (Telik, Inc., priority 2010, dated 2013):

Assay: Assay and impurities by HPLC of tablets on storage
Format: physicochemical
Details: Total impurities of Tables 5-7
Text: As used herein, “impurity” refers to one or more of: TLK 236, another polymorphic form of ezatiostat hydrochloride including without limitation form A, B, C, E, or F, and any other compound other than ezatiostat hydrochloride ansolvate, which may be identified by HPLC. TLK 236 is a monoester derived from the partial hydrolysis of ezatiostat where the phenyl glycine moiety remains esterified.
As described above, form E converts to form B simply during tableting.
Tablets of ansolvate form D, were packaged with and without desiccant (Sorb-It Cannister, 1 gram). Fifty tablets were packaged in a round, white 1500 mL bottle with a screw cap over an induction seal. Impurities were assayed by HPLC. When stored at 25° C./60% RH with desiccant for 3 months, no increase in total impurities was observed. When stored at 40° C./75% RH with desiccant for 3 months, total impurities increased only by 0.3%. When stored at 40° C./75% RH without desiccant for 3 months, total impurities still increased by 1.1%. As tabulated below, the presence of desiccant appears to further increase the stability of the ansolvate form D. Even though the dissolution rate of tablets containing polymorph D from one batch was below specification (<70%) at an initial test as well as after 3 months at 25° C./60% RH with desiccant, the subsequent batches met the required specification.

## CCOC(=O)[C@@H](N)CCC(=O)N[C@@H](CSCc1ccccc1)C(=O)N[C@@H](C(=O)OCC)c1ccccc1.Cl [Polymorphic form B, ezatiostat hydrochloride]
  rate of decomposition relative to ansolvate form D: more than double the rate of decomposition of the ansolvate form D
